Drawing on US11066357B2, “Benzoannulene derivatives as antiviral agents” (Southern Research Institute, priority 2017, dated 2021), this text covers EC50 and CC50 for seven compounds.

One series deals with CHIKV. In words: antiviral activity (EC50), Table 1. Type of series: cell-based. The settings on record: Chikungunya virus.
The nature of series [1]: cytotoxicity (CC50), Table 1.

Take `COc1cc2c(cc1C(=O)Nc1ccc(OC(F)(F)F)cc1)CCCCC2` [Compound 14, 3-methoxy-N-(4-(trifluoromethoxy)phenyl)-6,7,8,9-tetrahydro-5H-benzo[7]annulene-2-carboxamide]: the EC50 in the series on CHIKV is greater than 40 µM. This compound also had a CC50 in series [1] greater than 40 µM.
The compound `COc1cc2c(cc1CC(=O)Nc1ccc(C(C)(C)C)cc1)CCCCC2` [Compound 31, N-(4-(tert.-butyl)phenyl)-2-(3-methoxy-6,7,8,9-tetrahydro-5H-benzo[7]annulen-2-yl)acetamide] showed an EC50 in the series on CHIKV of 30.4 µM. This compound registered a cytotoxic concentration (CC50) in series [1] greater than 40 µM.
Taken in the same sequence, the figures for `COc1nc2c(cc1C(=O)Nc1ccc(C(C)(C)C(=O)O)cc1)CCCCC2` [Compound 40, 2-(4-(2-methoxy-6,7,8,9-tetrahydro-5H-cyclohepta[b]pyridine-3-carboxamido)phenyl)-2-methylpropanoic acid] were greater than 40 µM and greater than 40 µM.
Taken in the same sequence, the figures for `COc1cc2c(cc1C(=O)Nc1ncc(C(C)(C)C)s1)CCCCC2` [Compound 8, N-(5-(tert.-butyl)thiazol-2-yl)-3-methoxy-6,7,8,9-tetrahydro-5H-benzo[7]annulene-2-carboxamide] were 9.63 µM and greater than 40 µM.
For `COc1cc2c(cc1C(=O)Nc1ccc(-c3ccccc3)cc1)CCCCC2` [Compound 15, N-([1,1′-biphenyl]-4-yl)-3-methoxy-6,7,8,9-tetrahydro-5H-benzo[7]annulene-2-carboxamide], in the series with CHIKV, the EC50 was greater than 40 µM. The CC50 in series [1] is greater than 40 µM.
`COc1cc2c(cc1CC(=O)N1CCC(C(C)(C)C)CC1)CCCCC2` [Compound 32, 1-(4-(tert.-butyl)piperidin-1-yl)-2-(3-methoxy-6,7,8,9-tetrahydro-5H-benzo[7]annulen-2-yl)ethan-1-one] yielded a half-maximal effective concentration (EC50) in the series with CHIKV of 12.6 µM. This compound returned a CC50 in series [1] of 17.3 µM.
Taken in the same sequence, the figures for `CC(C)(C)c1ccc(NC(=O)c2ccc3c(c2)CCCCC3)cc1` [Compound 3, N-(4-(tert.-butyl)phenyl)-6,7,8,9-tetrahydro-5H-benzo[7]annulene-2-carboxamide] were 1.09 µM and greater than 40 µM.
